Experimental data: patent US4065616A, “Processes for production of a 1-N-(α-hydroxy-.PHI.-amino alkanoyl)-3-deoxy-5-O-pentafuranosyl neamine and new compounds produced by the same processes” (Zaidan Hojin Biseibutsu Kagaku Kenkyu Kai, priority 1975, dated 1977)
Values after ≈ are worked out from the molar mass of the structure shown. Read-outs that look alike come from different tables or passages of the source.

How the values were obtained:
[1] = test system: kanamycin-resistant bacteria; settings: in words, prior work; cited from earlier work
[2] = test system: Klebsiella pneumoniae Type 22, No. 3038; assay: M.I.C. by standard serial dilution method; type: cell-based; settings: read-out: minimum inhibitory concentration (M.I.C.)
Protocol: (§1) These particular compounds, that is, 1-n-(α-hydroxy-ω-aminoalkanoyl)-3'-deoxy-5-O-pentofuranosylneamines according to the aforesaid general formula (I) have useful antibacterial activity against a wide variety of bacteria, including gram-negative bacteria and gram-positive bacteria. The minimum inhibitory concentration (M.I.C.) (mcg/ml) of these compounds against various organisms was determined by a standard serial dilution method at an incubation temperature of 37° C, the estimation being made after 18 hours incubation or each test organism, except that the incubation time was 48 hours for Mycobacterium smegmatis. The incubation medium used was nutrient agar.

Escherichia coli NIHJ = assay: M.I.C. by standard serial dilution method; type: cell-based; settings: read-out: minimum inhibitory concentration (M.I.C.)
Protocol: as §1

[3] = test system: Pseudomonas aeruginosa No. 12; assay: M.I.C. by standard serial dilution method; type: cell-based; settings: P. aeruginosa No. 12, nutrient agar, 37° C, 18 hours, read-out: minimum inhibitory concentration (M.I.C.)
Protocol: as §1

[4] = test system: Escherichia coli K-12 LA 290 R55; assay: M.I.C. by standard serial dilution method; type: cell-based; settings: K12LA290R55, 18 h, read-out: minimum inhibitory concentration (M.I.C.)
Protocol: as §1

Salmonella typhosa T-63 = assay: M.I.C. by standard serial dilution method; type: cell-based; settings: Salmonella enterica, 18 h, read-out: minimum inhibitory concentration (M.I.C.)
Protocol: as §1

Sarcina lutea PCl 1001 = assay: M.I.C. by standard serial dilution method; type: cell-based; settings: Micrococcus luteus, PCL1001, nutrient agar, 37° C, 18 hours, read-out: minimum inhibitory concentration (M.I.C.)
Protocol: as §1

Bacillus subtilis B-558 = assay: M.I.C. by standard serial dilution method; type: cell-based; settings: read-out: minimum inhibitory concentration (M.I.C.)
Protocol: as §1

[5] = test system: Escherichia coli K-12 W677; assay: M.I.C. by standard serial dilution method; type: cell-based; settings: read-out: minimum inhibitory concentration (M.I.C.)
Protocol: as §1

Escherichia coli K-12 = assay: M.I.C. by standard serial dilution method; type: cell-based; settings: read-out: minimum inhibitory concentration (M.I.C.)
Protocol: as §1

[6] = test system: Pseudomonas aeruginosa A3; assay: M.I.C. by standard serial dilution method; type: cell-based; settings: P. aeruginosa A3, nutrient agar, 37° C, 18 hours, read-out: minimum inhibitory concentration (M.I.C.)
Protocol: as §1

[7] = test system: Escherichia coli K-12 ML 1410; assay: M.I.C. by standard serial dilution method; type: cell-based; settings: K12ML1410, E. coli K-12 ML 1410, nutrient agar, 37° C, 18 hours, read-out: minimum inhibitory concentration (M.I.C.)
Protocol: as §1

[8] = test system: Escherichia coli K-12 JR66/W677; assay: M.I.C. by standard serial dilution method; type: cell-based; settings: K12JR66/W677, 18 h, read-out: minimum inhibitory concentration (M.I.C.)
Protocol: as §1

Proteus rettgeri GN 466 = assay: M.I.C. by standard serial dilution method; type: cell-based; settings: Providencia rettgeri, GN466; Proteus rettgeri GN 466; nutrient agar, 37° C, 18 hours; read-out: minimum inhibitory concentration (M.I.C.)
Protocol: as §1

[9] = test system: Escherichia coli K-12 ML 1630; assay: M.I.C. by standard serial dilution method; type: cell-based; settings: K12ML1630, E. coli K-12 ML 1630, nutrient agar, 37° C, 18 hours, read-out: minimum inhibitory concentration (M.I.C.)
Protocol: as §1

[10] = test system: Escherichia coli K-12 LA 290 R64; assay: M.I.C. by standard serial dilution method; type: cell-based; settings: K12LA290R64, 18 h, read-out: minimum inhibitory concentration (M.I.C.)
Protocol: as §1

[11] = test system: Pseudomonas aeruginosa GN 315; assay: M.I.C. by standard serial dilution method; type: cell-based; settings: GN315, P. aeruginosa GN 315, nutrient agar, 37° C, 18 hours, read-out: minimum inhibitory concentration (M.I.C.)
Protocol: as §1

[12] = test system: Escherichia coli K-12 ML 1629; assay: M.I.C. by standard serial dilution method; type: cell-based; settings: read-out: minimum inhibitory concentration (M.I.C.)
Protocol: as §1

[13] = test system: Klebsiella pneumoniae PCI 602; assay: M.I.C. by standard serial dilution method; type: cell-based; settings: read-out: minimum inhibitory concentration (M.I.C.)
Protocol: as §1

[14] = test system: Mycobacterium smegmatis ATCC 607; assay: M.I.C. by standard serial dilution method; type: cell-based; settings: Mycolicibacterium smegmatis, ATCC607, nutrient agar, 37° C, 48 hours, read-out: minimum inhibitory concentration (M.I.C.)
Protocol: as §1

[15] = test system: Escherichia coli K-12 ML 1410 R81; assay: M.I.C. by standard serial dilution method; type: cell-based; settings: 18 h, read-out: minimum inhibitory concentration (M.I.C.)
Protocol: as §1

[16] = test system: Escherichia coli K-12 LA 290 R56; assay: M.I.C. by standard serial dilution method; type: cell-based; settings: K12LA290R56, 18 h, read-out: minimum inhibitory concentration (M.I.C.)
Protocol: as §1

Proteus rettgeri GN 311 = assay: M.I.C. by standard serial dilution method; type: cell-based; settings: Providencia rettgeri, GN311, nutrient agar, 37° C, 18 hours, read-out: minimum inhibitory concentration (M.I.C.)
Protocol: as §1

[17] = test system: Staphylococcus aureus FDA 209P; assay: M.I.C. by standard serial dilution method; type: cell-based; settings: FDA209P, S. aureus FDA 209P, nutrient agar, 37° C, 18 hours, read-out: minimum inhibitory concentration (M.I.C.)
Protocol: as §1

[18] = test system: Pseudomonas aeruginosa TI-13; assay: M.I.C. by standard serial dilution method; type: cell-based; settings: TI13, P. aeruginosa TI-13, nutrient agar, 37° C, 18 hours, read-out: minimum inhibitory concentration (M.I.C.)
Protocol: as §1

[19] = test system: Pseudomonas aeruginosa 99; assay: M.I.C. by standard serial dilution method; type: cell-based; settings: P. aeruginosa 99, nutrient agar, 37° C, 18 hours, read-out: minimum inhibitory concentration (M.I.C.)
Protocol: as §1

NCCC(O)C(=O)N[C@@H]1C[C@H](N)[C@@H](O[C@H]2O[C@H](CN)CC[C@H]2N)[C@H](O)[C@H]1O[C@H]1O[C@H](CO)[C@@H](O)[C@H](N)[C@H]1O (stereo partly drawn) [1-N-(4-amino-2-hydroxybutyryl)-DKB]
antibacterial activity against resistant bacteria [1]: active against the kanamycin-resistant bacteria

NCCC(O)C(=O)N[C@@H]1C[C@H](N)[C@@H](O[C@H]2O[C@H](CN)[C@@H](O)[C@H](O)[C@H]2O)[C@H](O)[C@H]1O[C@H]1O[C@H](CO)[C@@H](O)[C@H](N)[C@H]1O (stereo partly drawn) [1-N-(4-amino-2-hydroxybutyryl)-kanamycin]
antibacterial activity against resistant bacteria [1]: active against the kanamycin-resistant bacteria

NCC(O)C(=O)N[C@@H]1C[C@H](N)[C@@H](O[C@H]2O[C@H](CN)CC[C@H]2N)[C@H](O)[C@H]1O[C@H]1O[C@H](CO)[C@@H](O)[C@H](N)[C@H]1O (stereo partly drawn) [1-N-isoseryl-DKB]
antibacterial activity against resistant bacteria [1]: active against the kanamycin-resistant bacteria

NCC(O)C(=O)N[C@@H]1C[C@H](N)[C@@H](O[C@H]2O[C@H](CN)[C@@H](O)[C@H](O)[C@H]2N)[C@H](O)[C@H]1O[C@H]1O[C@H](CO)[C@@H](O)[C@H](N)[C@H]1O (stereo partly drawn) [1-N-isoserylkanamycin B]
antibacterial activity against resistant bacteria [1]: active against the kanamycin-resistant bacteria

NCC(O)C(=O)N[C@@H]1C[C@H](N)[C@@H](O[C@H]2O[C@H](CN)[C@@H](O)[C@H](O)[C@H]2O)[C@H](O)[C@H]1O[C@H]1O[C@H](CO)[C@@H](O)[C@H](N)[C@H]1O (stereo partly drawn) [1-N-isoserylkanamycin]
antibacterial activity against resistant bacteria [1]: active against the kanamycin-resistant bacteria

NC[C@H]1O[C@H](O[C@H]2[C@H](O)[C@@H](O[C@H]3O[C@H](CO)[C@@H](O)[C@H](N)[C@H]3O)[C@H](N)C[C@@H]2N)[C@H](O)C[C@@H]1O [3'-deoxykanamycin A]
antibacterial activity against resistant bacteria [1]: high antibacterial activity against the above-mentioned resistant bacteria

NC[C@H]1O[C@H](O[C@H]2[C@H](O)[C@@H](O[C@H]3O[C@H](CO)[C@@H](O)[C@H](N)[C@H]3O)[C@H](N)C[C@@H]2N)[C@H](N)C[C@@H]1O [3'-deoxykanamycin B]
antibacterial activity against resistant bacteria [1]: high antibacterial activity against the above-mentioned resistant bacteria

NC[C@H]1O[C@H](O[C@H]2[C@H](O[C@@H]3O[C@H](CO)[C@@H](O)[C@H]3O)[C@@H](O)[C@H](N)C[C@@H]2N)[C@H](N)C[C@@H]1O [3'-deoxyribostamycin]
antibacterial activity against resistant bacteria [1]: high antibacterial activity against the above-mentioned resistant bacteria

NCC(O)C(=O)N[C@@H]1C[C@H](N)[C@@H](O[C@H]2O[C@H](CN)[C@@H](O)C[C@H]2N)[C@H](O[C@@H]2O[C@H](CO)[C@H](O)[C@H]2O)[C@H]1O (stereo partly drawn) [Compound No. 1, 1N-((RS)-3-amino-2-hydroxypropionyl)-3'-deoxy-5-O-β-D-xylofuranosylneamine]
MIC ([2]; 18 h): 1.56 µg/mL (≈ 2.97 µM)
MIC (Escherichia coli NIHJ; 18 h): 1.56 µg/mL (≈ 2.97 µM)
MIC [3]: 12.5 µg/mL (≈ 23.8 µM)
MIC [4]: 3.12 µg/mL (≈ 5.94 µM)
MIC (Salmonella typhosa T-63): 1.56 µg/mL (≈ 2.97 µM)
MIC (Sarcina lutea PCl 1001): 25 µg/mL (≈ 47.6 µM)
MIC (Bacillus subtilis B-558; B558, 18 h): 1.56 µg/mL (≈ 2.97 µM)
MIC ([5]; K12W677, 18 h): 1.56 µg/mL (≈ 2.97 µM)
MIC (Escherichia coli K-12; K12, 18 h): 1.56 µg/mL (≈ 2.97 µM)
MIC [6]: 6.25 µg/mL (≈ 11.9 µM)
MIC [7]: 3.12 µg/mL (≈ 5.94 µM)
MIC [8]: 3.12 µg/mL (≈ 5.94 µM)
MIC (Proteus rettgeri GN 466): 3.12 µg/mL (≈ 5.94 µM)
MIC [9]: 3.12 µg/mL (≈ 5.94 µM)
MIC [10]: 1.56 µg/mL (≈ 2.97 µM)
MIC [11]: > 100 µg/mL
MIC ([12]; K12ML1629, 18 h): 1.56 µg/mL (≈ 2.97 µM)
MIC ([13]; PCI602, 18 h): 1.56 µg/mL (≈ 2.97 µM)
MIC [14]: 0.39 µg/mL (≈ 0.742 µM)
MIC [15]: 6.25 µg/mL (≈ 11.9 µM)
MIC [16]: 3.12 µg/mL (≈ 5.94 µM)
MIC (Proteus rettgeri GN 311): 12.5 µg/mL (≈ 23.8 µM)
MIC [17]: 3.12 µg/mL (≈ 5.94 µM)
MIC [18]: 25 µg/mL (≈ 47.6 µM)
MIC [19]: 12.5 µg/mL (≈ 23.8 µM)

NCC[C@H](O)C(=O)N[C@@H]1C[C@H](N)[C@@H](O[C@H]2O[C@H](CN)[C@@H](O)C[C@H]2N)[C@H](O[C@@H]2O[C@H](CO)[C@@H](O)[C@H]2O)[C@H]1O [Compound No. 5, 1-N-((S)-4-amino-2-hydroxybutyryl)-3'-deoxy-5-O-β-D-ribofuranosylneamine]
MIC ([2]; K. pneumoniae Type 22, No. 3038, nutrient agar, 37° C, 18 hours): 0.78 µg/mL (≈ 1.45 µM)
MIC (Escherichia coli NIHJ; E. coli NIHJ, nutrient agar, 37° C, 18 hours): 0.78 µg/mL (≈ 1.45 µM)
MIC [3]: 25 µg/mL (≈ 46.3 µM)
MIC [4]: 0.78 µg/mL (≈ 1.45 µM)
MIC (Salmonella typhosa T-63): 0.39 µg/mL (≈ 0.723 µM)
MIC (Sarcina lutea PCl 1001): 25 µg/mL (≈ 46.3 µM)
MIC (Bacillus subtilis B-558; B558, B. subtilis B-558, nutrient agar, 37° C, 18 hours): < 0.2 µg/mL
MIC ([5]; K12W677, E. coli K-12 W677, nutrient agar, 37° C, 18 hours): 0.39 µg/mL (≈ 0.723 µM)
MIC (Escherichia coli K-12; K12, E. coli K-12, nutrient agar, 37° C, 18 hours): 0.2 µg/mL (≈ 0.371 µM)
MIC [6]: 3.12 µg/mL (≈ 5.78 µM)
MIC [7]: 0.78 µg/mL (≈ 1.45 µM)
MIC [8]: 1.56 µg/mL (≈ 2.89 µM)
MIC (Proteus rettgeri GN 466): 0.78 µg/mL (≈ 1.45 µM)
MIC [9]: 1.56 µg/mL (≈ 2.89 µM)
MIC [10]: 0.2 µg/mL (≈ 0.371 µM)
MIC [11]: > 100 µg/mL
MIC ([12]; K12ML1629, E. coli K-12 ML 1629, nutrient agar, 37° C, 18 hours): 0.39 µg/mL (≈ 0.723 µM)
MIC ([13]; PCI602, K. pneumoniae PCI 602, nutrient agar, 37° C, 18 hours): 0.39 µg/mL (≈ 0.723 µM)
MIC [14]: < 0.2 µg/mL
MIC [16]: 0.39 µg/mL (≈ 0.723 µM)
MIC (Proteus rettgeri GN 311): 3.12 µg/mL (≈ 5.78 µM)
MIC [17]: 0.39 µg/mL (≈ 0.723 µM)
MIC [18]: 25 µg/mL (≈ 46.3 µM)
MIC [19]: 12.5 µg/mL (≈ 23.2 µM)
